# Target: T1, human GRIN1 (transcript variant NR1-3) and GRIN2D expressed in Xenopus oocytes (Homo sapiens, UniProt O15399)
# T1 construct: GenScript (GRIN2D synthesis) SC115601; host or cells: Xenopus oocytes injected with cRNA (1 GluN1 : 2 GluN2)
# Assay: NR2D oocyte potentiation assay (two-electrode voltage clamp)
# Format: cell-based
# Details: 10 uM test compound; glutamate and glycine 10 μM each; holding potential −40 mV
# Summary of the method: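 Xenopus oocytes were defolliculated with collagenase, then injected with 50 nL of cRNA encoding human GluN1 (NR1-3 variant) and GluN2D mixed 1:2 and kept 72 h at 16° C. Two-electrode voltage clamp at −40 mV recorded currents; after 10 μM glutamate plus 10 μM glycine reached plateau, test compound was added until a new plateau formed.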
# T1 sequence (O15399 28-1336, other chains not shown): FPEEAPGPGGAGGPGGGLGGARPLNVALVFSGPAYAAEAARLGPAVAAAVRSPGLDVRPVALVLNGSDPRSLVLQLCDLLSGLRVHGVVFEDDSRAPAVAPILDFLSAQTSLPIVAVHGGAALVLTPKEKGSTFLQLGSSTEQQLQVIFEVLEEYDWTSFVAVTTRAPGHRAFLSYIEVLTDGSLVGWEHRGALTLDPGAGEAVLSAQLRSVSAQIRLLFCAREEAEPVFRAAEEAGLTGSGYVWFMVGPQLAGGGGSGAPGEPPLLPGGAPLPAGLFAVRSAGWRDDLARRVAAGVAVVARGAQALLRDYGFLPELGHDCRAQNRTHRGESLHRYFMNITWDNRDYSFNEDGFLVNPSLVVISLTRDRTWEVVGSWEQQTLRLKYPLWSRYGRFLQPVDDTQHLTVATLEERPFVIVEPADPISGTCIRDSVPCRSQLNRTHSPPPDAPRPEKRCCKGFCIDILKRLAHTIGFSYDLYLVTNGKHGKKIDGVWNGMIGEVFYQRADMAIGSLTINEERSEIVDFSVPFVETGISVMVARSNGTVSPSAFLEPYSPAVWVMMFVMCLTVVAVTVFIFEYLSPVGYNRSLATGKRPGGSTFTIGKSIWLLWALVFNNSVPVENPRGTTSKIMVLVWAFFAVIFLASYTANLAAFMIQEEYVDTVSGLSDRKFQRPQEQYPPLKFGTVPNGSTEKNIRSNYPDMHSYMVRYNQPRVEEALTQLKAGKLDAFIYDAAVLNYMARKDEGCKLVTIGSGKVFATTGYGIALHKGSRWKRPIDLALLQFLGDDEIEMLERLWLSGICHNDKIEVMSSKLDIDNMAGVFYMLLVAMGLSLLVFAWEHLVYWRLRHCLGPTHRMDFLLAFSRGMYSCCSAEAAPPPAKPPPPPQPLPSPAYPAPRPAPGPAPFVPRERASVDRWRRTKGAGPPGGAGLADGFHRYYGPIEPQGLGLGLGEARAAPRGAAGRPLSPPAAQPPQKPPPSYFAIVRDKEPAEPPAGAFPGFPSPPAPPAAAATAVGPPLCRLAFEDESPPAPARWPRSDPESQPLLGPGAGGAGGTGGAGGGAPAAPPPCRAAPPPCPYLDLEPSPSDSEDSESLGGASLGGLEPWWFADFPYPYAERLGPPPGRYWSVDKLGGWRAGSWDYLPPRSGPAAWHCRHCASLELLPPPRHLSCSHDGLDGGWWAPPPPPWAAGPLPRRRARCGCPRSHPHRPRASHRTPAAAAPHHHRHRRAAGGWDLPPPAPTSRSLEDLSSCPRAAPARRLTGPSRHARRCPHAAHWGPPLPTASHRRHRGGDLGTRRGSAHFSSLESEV
SMILES,activation at 10 µM,NR2D Oocyte % Potentiation @ 10 uM
"CC(C)(C)c1ccc(-c2nc3n(c(=O)c2C#N)CCCO3)cn1 [Example 77, 8-(6-(tert-butyl)pyridin-3-yl)-6-oxo-3,4-dihydro-2H,6H-pyrimido[2,1-b][1,3]oxazine-7-carbonitrile]",10 to 100%,
"CC(C)(C#N)c1ccc(-c2nc3n(c(=O)c2C#N)CCCS3)cn1 [Example 78, 8-(6-(2-cyanopropan-2-yl)pyridin-3-yl)-6-oxo-3,4-dihydro-2H,6H-pyrimido[2,1-b][1,3]thiazine-7-carbonitrile]",10 to 100%,
"CC1CSc2nc(-c3ccc(C(C)(C)C#N)nc3)c(C#N)c(=O)n2C1 (stereo not drawn) [Example 79, 8-[6-(1-cyano-1-methylethyl)pyridin-3-yl]-3-methyl-6-oxo-2H,3H,4H,6H-pyrimido[2,1-b] [1,3]thiazine-7-carbonitrile]",100 to 500%,
"CC(C)C1CSc2nc(-c3ccc(C(C)(C)C)nc3)c(C#N)c(=O)n2C1 (stereo not drawn) [Example 80, 8-(6-(tert-butyl)pyridin-3-yl)-3-isopropyl-6-oxo-3,4-dihydro-2H,6H-pyrimido[2,1-b][1,3]thiazine-7-carbonitrile]",100 to 500%,
"CCOC(=O)c1ccc(-c2nc3n(c(=O)c2C#N)CCCS3)cn1 [Example 82, ethyl 5-(7-cyano-6-oxo-3,4-dihydro-2H,6H-pyrimido[2,1-b][1,3]thiazin-8-yl)picolinate]",,Inhibitor
"CC(C)(O)c1ccc(-c2nc3n(c(=O)c2C#N)CCCS3)cn1 [Example 83, 8-(6-(2-hydroxypropan-2-yl)pyridin-3-yl)-6-oxo-3,4-dihydro-2H,6H-pyrimido[2,1-b][1,3]thiazine-7-carbonitrile]",10 to 100%,
"CCOC(=O)c1ccc(-c2nc3n(c(=O)c2C#N)CC(C)CS3)cn1 (stereo not drawn) [Example 84, ethyl 5-(7-cyano-3-methyl-6-oxo-3,4-dihydro-2H,6H-pyrimido[2,1-b][1,3]thiazin-8-yl)picolinate]",< 10%,
"CC1CSc2nc(-c3ccc(C(C)(C)O)nc3)c(C#N)c(=O)n2C1 (stereo not drawn) [Example 85, 8-(6-(2-hydroxypropan-2-yl)pyridin-3-yl)-3-methyl-6-oxo-3,4-dihydro-2H,6H-pyrimido[2,1-b][1,3]thiazine-7-carbonitrile]",10 to 100%,
"COC(=O)C1CSc2nc(-c3ccc(C(C)(C)C)nc3)c(C#N)c(=O)n2C1 (stereo not drawn) [Example 86, methyl 8-(6-(tert-butyl)pyridin-3-yl)-7-cyano-6-oxo-3,4-dihydro-2H,6H-pyrimido[2,1-b][1,3]thiazine-3-carboxylate]",100 to 500%,
"CC1CCn2c(nc(-c3ccc(C(C)(C)C)nc3)c(C#N)c2=O)S1 (stereo not drawn) [Example 93, 8-(6-(tert-butyl)pyridin-3-yl)-2-methyl-6-oxo-3,4-dihydro-2H,6H-pyrimido[2,1-b][1,3]thiazine-7-carbonitrile]",500 to 1000%,
"CN1CCCn2c1nc(-c1ccc(C(C)(C)C)nc1)c(C#N)c2=O [Example 94, 8-(6-(tert-butyl)pyridin-3-yl)-1-methyl-6-oxo-1,3,4,6-tetrahydro-2H-pyrimido[1,2-a]pyrimidine-7-carbonitrile]",100 to 500%,
"C=C(C)c1ccc(-c2nc3n(c(=O)c2C#N)CCCS3)cn1 [Example 95, 6-oxo-8-(6-(prop-1-en-2-yl)pyridin-3-yl)-3,4-dihydro-2H,6H-pyrimido[2,1-b][1,3]thiazine-7-carbonitrile]",100 to 500%,
"C[C@H]1CSc2cc(-c3ccc(C(C)(C)C)nc3)c(C#N)c(=O)n2C1 [Example 96, (R)-8-(6-(tert-butyl)pyridin-3-yl)-3-methyl-6-oxo-3,4-dihydro-2H,6H-pyrido[2,1-b][1,3]thiazine-7-carbonitrile]",> 1000%,
"C[C@@H]1CSc2cc(-c3ccc(C(C)(C)C)nc3)c(C#N)c(=O)n2C1 [Example 97, (S)-8-(6-(tert-butyl)pyridin-3-yl)-3-methyl-6-oxo-3,4-dihydro-2H,6H-pyrido[2,1-b][1,3]thiazine-7-carbonitrile]",> 1000%,
"CC(C)(C)c1ncc(-c2cc3n(c(=O)c2C#N)CCCS3)cc1F [Example 102, 8-(6-(tert-butyl)-5-fluoropyridin-3-yl)-6-oxo-3,4-dihydro-2H,6H-pyrido[2,1-b][1,3]thiazine-7-carbonitrile]",> 1000%,
"CC1CSc2cc(-c3cnc(C(C)(C)C)c(F)c3)c(C#N)c(=O)n2C1 (stereo not drawn) [Example 103, 8-(6-(tert-butyl)-5-fluoropyridin-3-yl)-3-methyl-6-oxo-3,4-dihydro-2H,6H-pyrido[2,1-b][1,3]thiazine-7-carbonitrile]",> 1000%,
"C[C@H]1CSc2cc(-c3cnc(C(C)(C)C)nc3)c(C#N)c(=O)n2C1 [Example 104, (R)-8-(2-(tert-butyl)pyrimidin-5-yl)-3-methyl-6-oxo-3,4-dihydro-2H,6H-pyrido[2,1-b][1,3]thiazine-7-carbonitrile]",> 1000%,
"C[C@H]1CSc2cc(-c3cnc(C(C)(C)C)c(F)c3)c(C#N)c(=O)n2C1 [Example 106, (R)-8-(6-(tert-butyl)-5-fluoropyridin-3-yl)-3-methyl-6-oxo-3,4-dihydro-2H,6H-pyrido[2,1-b][1,3]thiazine-7-carbonitrile]",> 1000%,
"C[C@@H]1CSc2cc(-c3cnc(C(C)(C)C)c(F)c3)c(C#N)c(=O)n2C1 [Example 107, (S)-8-(6-(tert-butyl)-5-fluoropyridin-3-yl)-3-methyl-6-oxo-3,4-dihydro-2H,6H-pyrido[2,1-b][1,3]thiazine-7-carbonitrile]",500 to 1000%,
"CC1CSc2nc(-c3ccc(C4(C)CC4)nc3)c(C#N)c(=O)n2C1 (stereo not drawn) [Example 108, 3-methyl-8-(6-(1-methylcyclopropyl)pyridin-3-yl)-6-oxo-3,4-dihydro-2H,6H-pyrimido[2,1-b][1,3]thiazine-7-carbonitrile]",500 to 1000%,

# Further lines, results first:
activation at 10 µM,NR2D Oocyte % Potentiation @ 10 uM,SMILES
> 1000%,,"CC1CSc2nc(-c3cnc(C(C)(C)C)c(F)c3)c(C#N)c(=O)n2C1 (stereo not drawn) [Example 76, 8-(6-(tert-butyl)-5-fluoropyridin-3-yl)-3-methyl-6-oxo-3,4-dihydro-2H,6H-pyrimido[2,1-b][1,3]thiazine-7-carbonitrile]"
> 1000%,,"CCC1CSc2nc(-c3ccc(C(C)(C)C)nc3)c(C#N)c(=O)n2C1 (stereo not drawn) [Example 81, 8-(6-tert-butylpyridin-3-yl)-3-ethyl-6-oxo-2H,3H,4H, 6H-pyrimido [2,1-b][1,3] thiazine-7-carbonitrile]"
500 to 1000%,,"CC(C)(C)c1ccc(-c2nc3n(c(=O)c2C#N)CC(CO)CS3)cn1 (stereo not drawn) [Example 87, 8-(6-(tert-butyl)pyridin-3-yl)-3-(hydroxymethyl)-6-oxo-3,4-dihydro-2H,6H-pyrimido[2,1-b][1,3]thiazine-7-carbonitrile]"
500 to 1000%,,"CC(C)(C)c1ccc(-c2nc3n(c(=O)c2C#N)CC(CF)CS3)cn1 (stereo not drawn) [Example 88, 8-(6-(tert-butyl)pyridin-3-yl)-3-(fluoromethyl)-6-oxo-3,4-dihydro-2H,6H-pyrimido[2,1-b][1,3]thiazine-7-carbonitrile]"
100 to 500%,,"COC(=O)C1CSc2nc(-c3cnc(C(C)(C)C)nc3)c(C#N)c(=O)n2C1 (stereo not drawn) [Example 89, methyl 8-(2-(tert-butyl)pyrimidin-5-yl)-7-cyano-6-oxo-3,4-dihydro-2H,6H-pyrimido[2,1-b][1,3]thiazine-3-carboxylate]"
500 to 1000%,,"CC(C)(C)c1ncc(-c2nc3n(c(=O)c2C#N)CC(CO)CS3)cn1 (stereo not drawn) [Example 90, 8-(2-(tert-butyl)pyrimidin-5-yl)-3-(hydroxymethyl)-6-oxo-3,4-dihydro-2H,6H-pyrimido[2,1-b][1,3]thiazine-7-carbonitrile]"
500 to 1000%,,"CC(C)(C)c1ncc(-c2nc3n(c(=O)c2C#N)CC(CF)CS3)cn1 (stereo not drawn) [Example 91, 8-(2-(tert-butyl)pyrimidin-5-yl)-3-(fluoromethyl)-6-oxo-3,4-dihydro-2H,6H-pyrimido[2,1-b][1,3]thiazine-7-carbonitrile]"
> 1000%,,"CC(C)(C)c1ncc(-c2nc3n(c(=O)c2C#N)CC(CO)CS3)cc1F (stereo not drawn) [Example 92, 8-(6-(tert-butyl)-5-fluoropyridin-3-yl)-3-(hydroxymethyl)-6-oxo-3,4-dihydro-2H,6H-pyrimido[2,1-b][1,3]thiazine-7-carbonitrile]"
> 1000%,,"C[C@H]1CSc2nc(-c3cnc(C(C)(C)C)c(F)c3)c(C#N)c(=O)n2C1 [Example 98, (R)-8-(6-(tert-butyl)-5-fluoropyridin-3-yl)-3-methyl-6-oxo-3,4-dihydro-2H,6H-pyrimido[2,1-b][1,3]thiazine-7-carbonitrile]"
> 1000%,,"C[C@@H]1CSc2nc(-c3cnc(C(C)(C)C)c(F)c3)c(C#N)c(=O)n2C1 [Example 99, (S)-8-(6-(tert-butyl)-5-fluoropyridin-3-yl)-3-methyl-6-oxo-3,4-dihydro-2H,6H-pyrimido[2,1-b][1,3]thiazine-7-carbonitrile]"
> 1000%,,"C[C@H]1CSc2nc(-c3cnc(C(C)(C)C)nc3)c(C#N)c(=N)n2C1 [Example 100, (R)-8-(2-(tert-butyl)pyrimidin-5-yl)-6-imino-3-methyl-3,4-dihydro-2H,6H-pyrimido[2,1-b][1,3]thiazine-7-carbonitrile]"
> 1000%,,"C[C@@H]1CSc2nc(-c3cnc(C(C)(C)C)nc3)c(C#N)c(=N)n2C1 [Example 101, (S)-8-(2-(tert-butyl)pyrimidin-5-yl)-6-imino-3-methyl-3,4-dihydro-2H,6H-pyrimido[2,1-b][1,3]thiazine-7-carbonitrile]"
> 1000%,,"C[C@@H]1CSc2cc(-c3cnc(C(C)(C)C)nc3)c(C#N)c(=O)n2C1 [Example 105, (S)-8-(2-(tert-butyl)pyrimidin-5-yl)-3-methyl-6-oxo-3,4-dihydro-2H,6H-pyrido[2,1-b][1,3]thiazine-7-carbonitrile]"

# — patent US11807650B2, “NMDA receptor modulators and uses thereof” (Novartis AG, priority 2016, dated 2023)
